Measured values published in patent publication US9888679B2, “Protection of progenitor cells and regulation of their differentiation” (Proteobioactives Pty Ltd, priority 2007, dated 2018).

How the values were obtained:
[1] = tested on: human progenitor cells; experiment: Proteoglycan synthesis in micromass cultures, 5 days; type: cell-based; settings: FIG. 17
Text: FIG. 17. Bar graphs showing the concentration dependent effects of PPS on proteoglycan synthesis by human progenitor cells in micromass cultures for 5 days. Data is presented as 35S-GAG radioactivity and as a percentage of control taken as 100%. * P<0.05 relative to control.
FIG. 19. Bar graphs showing the concentration dependent effects of (A) Hyaluronan (Supartz™) and (B) Dextran Polysulfate on proteoglycan synthesis by human progenitor cells in micromass cultures for 5 days. Data is presented as ^35S-GAG radioactivity and as a percentage of control, taken as 100% or as DPM/ug DNA. * P<0.05 relative to control.
The technique used was based on that described by (Denker A E, Haas A R, Nicoll S B and Tuan R S. Chondrogenic differentiation of murine C3H10T1/2 multipotential progenitor cells: I. Stimulation by bone morphogenetic protein-2 in high density micromass cultures. Differentiation (1999); 64: 67-76). Briefly murine Progenitor cells (cell lines C3H10T1/2 or ATDC5) purchased from RIKEN Cell Bank (Tsukuba, Japan) or human immunoselected Stro-1+ Progenitor cells (Mesoblast Ltd, Melbourne, Australia) Ten microlitres (10 μl) of a suspension of the progenitor cells (1×10^7 cells/ml in Ham's F12 medium+10% FBS) were applied to individual wells of a 24-well plates. After incubatation at 37° C. in a humidified atmosphere of 5% CO2/95% air for 2-3 hours, 900 μl of Ham's F12 medium (10% FBS) and 100 μl of PPS solution in the same medium were added slowly into the wells to afford final concentrations of PPS in each of 0, 0.1, 0.5, 1.0, 2.5, 5.0, 10.0, 20.0 μg/ml alone or in combination with rhNC4 (0, 0.1, 0.5, 1.0, 2.5, 5.0, 10.0, 25.0 μg/ml). Each drug concentration was repeated in triplicate. The cells were maintained in culture for up to 10 days. The medium with/without drugs was changed every 3 days but 24 hours before termination of the experiment 80 μl of 50 μCi/ml ^35S-H2SO4 was added to achieve a final ^35SO4 concentration of 5 μCi/ml. The following day, the cells in one of the plates were trypsinized with 150 μl/well of 2.5% trypsin and separated from the medium by centrifugation at 800 g for 10 minutes, washed with 500 μl of 1×PBS and stored in liquid nitrogen for RNA and/or DNA extraction and analysis. Media and supernatants were combined in one tube for each concentration of PPS used. To the tubes was added, 200 μl of 5× Papain solution [2.5 mg/ml Papain, 7.9 mg/ml L-Cysteine in Papain buffer (0.1 M NaAC, 5 mM EDTA, pH6.0)] and the solution incubated at 65° C. for 2 hours. After papain digestion, Four aliquots of 200 μl of digested solution were transferred to a 96-well plate (200 μl/well). The ^35S-GAG released by the digestion step were separated from the free ^35SO4 by adding 20 μl 5% CPC and 10 μl 1 mg/ml CSA with gentle shaking at 300 rpm RT for 20-30 min to precipitate the ^35S-GAG-CPC complexes. The precipitates were collected by filtered through glass fibre filters using a cell harvester. The filters were then air-dried and discs punched to scintillation vials. 3 ml/vial scintillation cocktail liquid was added and vortexed for 30-45 sec. The radioactivity of ^35S—SO4 incorporated the ^35S-GAG-CPC complexes was measured by scintillation counting.
Data is presented as 35S-GAG radioactivity and as a percentage of control taken as 100%. * P<0.05 relative to control.
Similar experiments were undertaken using Hyaluronic acid (SuperArtz (SKK, Tokyo, Japan)) and Dextran polysulfate (MW=5000) (Sigma, Sydney, Australia) in place of PPS. […] Data is presented as 35S-GAG radioactivity and as a percentage of control taken as 100% or as DPM/ug DNA. * P<0.05 relative to control.

[2] = tested on: Human immunoselected Stro-1+ Progenitor cells; experiment: Hyaluronan biosynthesis, 3H-glucosamine incorporation, Superdex-S200 before/after Hyalase, 9 day micromass; type: cell-based
Text: FIG. 27. Chromatographic elution profiles showing the effects of polysulfated polysaccharides on the biosynthesis of Hyaluronan (HA) and by progenitor cells by measuring the incorporation of ^3H-glucosamine into HA. […] The % difference in areas under the profiles of the digested and pre-digested samples in the void volume fractions represents the amounts of ^3H-HA released into the media by the PPS concentration specified.
Human immunoselected Stro-1+ Progenitor cells (Mesoblast Ltd, Melbourne, Australia) were established in micromass cultures in 24 well plates using the method described above but seeding the progenitor cells at a density of 7×10^5 cells/well. After 24 hours in culture the media was changed and replaced with DMEM culture medium containing 10% FCS and 25 μg/ml gentamicin containing PPS (Bene-Arzneimittel, Munich, […]) which had been sterilised through a 0.22 μm filter. The cultures were incubated in 5% CO2/95% moist air at 37° C. for 8 days with media changes containing the indicated concentrations of PPS every 3 days. On the 8th day ^3H-glucosamine was added to culture medium containing the indicated concentrations of PPS to provide a solution containing 1.0 μCi/ml which was added to each well. The plates were incubated for a further 24 h. At termination of the cultures on day 9, media was collected into 5 ml capped tubes and stored at 4° C. prior to size exclusion chromatography as described below.
Two aliquots of 0.5 ml from each media sample were labelled A and B. 20 μl of 1 M acetic acid, pH 6.0 was added to all aliquots. 50 μl of reaction buffer (20 mM Na-acetate and 0.15 M NaCl, pH 6.0) was added to aliquot A and 50 μl of 5 TRU Streptomyces hyaluronidase (HYALASE) in reaction buffer was added to aliquot B. All samples were incubated at 60° C. for 3 h followed by boiling for 5 min to inactivate the added hyaluronidase. The samples were stored at −20° C. prior to gel filtration.
A Gel filtration column prepacked with Superdex-S200 was used to isolate and identify ^3H-HA and ^3H-PGs in culture media. Media samples were routinely centrifuged at high speed on a bench Microfuge for 10 min immediately before loading to the column. Samples (200 μl of each) were injected into the column through sample loop and the column was eluted with PBS buffer (0.15 M NaCl, 0.05 M Na2PO4, pH 7.2) at the flow rate of 0.2 ml/1 min. The column eluent was collected at 1.0 ml/fraction for total of 186 fractions and radioactivity was determined using a β-scintillation counter.

pentosan polysulfate [PPS]
maximum stimulation of PG synthesis ([1]; 2.5 micrograms/mL, 5 day micromass cultures): 30% | proteoglycan synthesis ([1]; PPS 0.5-10 μg/ml, 5 day micromass): Increased proteoglycan synthesis | 3H-glucosamine radioactivity incorporated into HA (media) ([2]; PPS 0.1 micrograms/mL (profile not shown)): 35.5% | levels of newly synthesized 3H-HA in the culture media ([2]; PPS 0.1 micrograms/mL and 1.0 micrograms/mL only): substantial increases | 3H-glucosamine radioactivity incorporated into HA (media) ([2]; PPS 1 microgram/mL, FIG. 27C): 49.6% | radioactivity in post digestion void volume fractions of PG monomers ([2]; PPS 1 microgram/mL, FIG. 27C): 50.4% | 3H-glucosamine incorporated into HA (media) ([2]; PPS 2.5 micrograms/mL): about 11% | PPS concentration of maximum synthesis of HA ([2]; micromass cultures, media): 1.0 micrograms/mL | biosynthesis of HA by cultured progenitor cells ([2]; micromass, FIG. 27): stimulates the biosynthesis of HA | 3H-glucosamine radioactivity found in the HA fractions (media) ([2]; the lower concentration of PPS (FIG. 27B)): 15.1%
